Experimental findings from patent US6608057B2, “Compounds useful as reversible inhibitors of cathepsin S” (Boehringer Ingelheim Pharmaceuticals, Inc., priority 1999, dated 2003) are described below.

Usually melting point stands for the temperature, or range, at which the solid turns liquid. The compound `CC(C)C[C@H](NC(=O)N1CCOCC1)C(=O)N[C@@H](CCc1ccccc1)C(=O)c1oc(-c2ccccc2)nc1-c1ccccc1` [Example 5, Morpholine-4-carboxylic acid {1-(S)-[1-(S)-(2,4-diphenyloxazole-5-carbonyl)-3-phenylpropylcarbamoyl]-3-methylbutyl} amide] showed a melting point of 83 to 85 °C.
